Experimental data taken from the NIST ThermoML archive (doi:10.1016/j.tca.2010.05.012).

Test: molar heat capacity at constant pressure
Details: Liquid, Large sample (1 g) DSC

CC(C)O [propan-2-ol]
molar heat capacity at constant pressure [J/K/mol]
Details	100 kPa	20000 kPa	40000 kPa
253.15 K	129.4	126.1	125.8
258.15 K	130.6	128.3	127.3
263.15 K	132.6	130.7	129.2
268.15 K	135	133.4	131.5
273.15 K	138	136.3	134
278.15 K	141.4	139.4	136.8
283.15 K	145.1	142.6	140
288.15 K	148.9	146	143.3
293.15 K	152.9	149.6	146.9
298.15 K	157	153.3	150.7
303.15 K	161.1	157.1	154.7
308.15 K	165	161.1	159
313.15 K	168.6	165	163.3
318.15 K	171.9	169.1	167.8
323.15 K	174.9	173.2	172.4
